# Measured values published in PubChem BioAssay AID248 (DTP/NCI, 2004).
# Values joined by “and” are separate entries in the source; they are usually repeats but may differ in a detail not shown here. Identical values can stand only once. Toxic doses and inconclusive results are not listed.
# System: L1210 leukemia ip in BDF1 mice, survival T/C
# Experiment: NCI In Vivo Anticancer Drug Screen. Data for tumor model L1210 Leukemia (intraperitoneal) in B6D2F1 (BDF1) mice
# Conditions: endpoint: mean survival time, higher = longer survival
# Method in brief: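 Antitumor effect is assessed in tumor-bearing animals. Survival in the compound arm is compared with a vehicle-dosed control arm and expressed as their quotient.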
# [1] = dose: 100.0 mg/kg/injection, schedule: Q01DX001 (ip), vehicle: saline
# [2] = dose: 200.0 mg/kg/injection, schedule: Q01DX001 (ip), vehicle: saline
# [3] = dose: 400.0 mg/kg/injection, schedule: Q01DX001 (ip), vehicle: saline
# [4] = dose: 100.0 mg/kg/injection, schedule: Q01DX009 (ip), vehicle: saline
# [5] = dose: 100.0 mg/kg/injection, schedule: Q04DX003 (ip), vehicle: saline
# [6] = dose: 400.0 mg/kg/injection, schedule: Q04DX003 (ip), vehicle: saline
# [7] = dose: 40.0 mg/kg/injection, schedule: Q01DX Z (ip), vehicle: carboxymethylcellulose (CMC)
# [8] = dose: 50.0 mg/kg/injection, schedule: Q01DX009 (ip), vehicle: Klucel (hydroxypropylcellulose) (HPC)
# [9] = dose: 100.0 mg/kg/injection, schedule: Q01DX009 (ip), vehicle: Klucel (hydroxypropylcellulose) (HPC)
# [10] = dose: 75.0 mg/kg/injection, schedule: Q01DX001 (ip), vehicle: saline
# [11] = dose: 150.0 mg/kg/injection, schedule: Q01DX001 (ip), vehicle: saline
# [12] = dose: 100.0 mg/kg/injection, schedule: Q04DX003 (ip), vehicle: Klucel (hydroxypropylcellulose) (HPC)
# [13] = dose: 200.0 mg/kg/injection, schedule: Q04DX003 (ip), vehicle: Klucel (hydroxypropylcellulose) (HPC)
# [14] = dose: 400.0 mg/kg/injection, schedule: Q04DX003 (ip), vehicle: Klucel (hydroxypropylcellulose) (HPC)
# [15] = dose: 100.0 mg/kg/injection, schedule: Q04DX002 (ip), vehicle: Klucel (hydroxypropylcellulose) (HPC)
# [16] = dose: 200.0 mg/kg/injection, schedule: Q01DX009 (ip), vehicle: Klucel (hydroxypropylcellulose) (HPC)
# [17] = dose: 200.0 mg/kg/injection, schedule: Q04DX002 (ip), vehicle: Klucel (hydroxypropylcellulose) (HPC)
# [18] = dose: 400.0 mg/kg/injection, schedule: Q04DX002 (ip), vehicle: Klucel (hydroxypropylcellulose) (HPC)
structure (smiles),measurement,setting,value
CCOc1ccc(N=C=S)cc1,T/C,[1],93 % of control
same,T/C,[2],98 % of control
same,T/C,[3],102 % of control
O=C(O)C(O)COc1ccc(Cl)cc1Cl (centres undefined),T/C,[4],92 % of control
same,T/C,[5],93 % of control
same,T/C,"dose: 200.0 mg/kg/injection, schedule: Q01DX009 (ip), vehicle: saline",107 % of control
same,T/C,"dose: 400.0 mg/kg/injection, schedule: Q01DX009 (ip), vehicle: saline",102 % of control
same,T/C,[6],102 % of control
Cc1cccc(N(CCOC(=O)Nc2ccc(Cl)cc2)CCOC(=O)Nc2ccc(Cl)cc2)c1,T/C,[1],94 % of control
same,T/C,[2],94 % of control
same,T/C,[3],96 % of control
CCN(CC)CCNc1ccc([N+](=O)[O-])c2sc3ccccc3c(=O)c12,T/C,"dose: 17.7 mg/kg/injection, schedule: Q01DX Z (ip), vehicle: carboxymethylcellulose (CMC)",121 % of control
same,T/C,"dose: 37.0 mg/kg/injection, schedule: Q01DX Z (ip), vehicle: methylcellulose (MC)",223 % of control
same,T/C,[7],152 % of control
same,T/C,"dose: 56.0 mg/kg/injection, schedule: Q01DX Z (ip), vehicle: methylcellulose (MC)",201 % of control
same,T/C,"dose: 60.0 mg/kg/injection, schedule: Q01DX Z (ip), vehicle: carboxymethylcellulose (CMC)",156 % of control
same,T/C,"dose: 90.0 mg/kg/injection, schedule: Q01DX Z (ip), vehicle: carboxymethylcellulose (CMC)",181 % of control
same,T/C,"dose: 126.0 mg/kg/injection, schedule: Q01DX Z (ip), vehicle: methylcellulose (MC)",115 % of control
O=C(CCl)Nc1cc(Cl)ccc1N1CCCCC1,T/C,"dose: 100.0 mg/kg/injection, schedule: Q01DX009 (ip), vehicle: acetone",100 % of control
same,T/C,"dose: 200.0 mg/kg/injection, schedule: Q01DX009 (ip), vehicle: acetone",91 % of control
same,T/C,"dose: 400.0 mg/kg/injection, schedule: Q01DX009 (ip), vehicle: acetone",91 % of control
Clc1cc(C(Cl)(Cl)Cl)ccc1C(Cl)(Cl)Cl,T/C,"dose: 25.0 mg/kg/injection, schedule: Q01DX009 (ip), vehicle: Klucel (hydroxypropylcellulose) (HPC)",89 % of control
same,T/C,[8],92 % of control
same,T/C,[9],90 % of control
NNc1ncnc2nc[nH]c12,T/C,"dose: 12.0 mg/kg/injection, schedule: Q01DX015 (ip), vehicle: saline",93 % of control
same,T/C,"dose: 25.0 mg/kg/injection, schedule: Q01DX015 (ip), vehicle: saline",101 % of control
same,T/C,"dose: 50.0 mg/kg/injection, schedule: Q01DX015 (ip), vehicle: saline",104 % of control
same,T/C,[10],105 % of control
same,T/C,"dose: 100.0 mg/kg/injection, schedule: Q01DX015 (ip), vehicle: saline",116 % of control
same,T/C,[11],102 % of control
same,T/C,"dose: 300.0 mg/kg/injection, schedule: Q01DX001 (ip), vehicle: saline",114 % of control
C(=N\N1CCN(/N=C/c2ccccc2)C1c1ccccc1)/c1ccccc1,T/C,[12],106 % of control
same,T/C,[13],94 % of control
same,T/C,[14],101 % of control
O=C(Nc1ccc(CCNC2=NCCN2)cc1)c1ccc(C(=O)Nc2ccc(CCNC3=NCCN3)cc2)cc1,T/C,"dose: 1.0 mg/kg/injection, schedule: Q01DX Z (ip), vehicle: water",107 % of control
same,T/C,"dose: 1.5 mg/kg/injection, schedule: Q01DX Z (ip), vehicle: water",109 % of control
same,T/C,"dose: 3.0 mg/kg/injection, schedule: Q01DX Z (ip), vehicle: water",158 % of control
same,T/C,"dose: 3.75 mg/kg/injection, schedule: Q01DX Z (ip), vehicle: water",167 % of control
same,T/C,"dose: 7.5 mg/kg/injection, schedule: Q01DX Z (ip), vehicle: water",151 % of control
same,T/C,"dose: 10.0 mg/kg/injection, schedule: Q01DX Z (ip), vehicle: carboxymethylcellulose (CMC)",216 % of control
same,T/C,"dose: 15.0 mg/kg/injection, schedule: Q01DX Z (ip), vehicle: water",92 % of control
same,T/C,"dose: 20.0 mg/kg/injection, schedule: Q01DX Z (ip), vehicle: carboxymethylcellulose (CMC)",180 % of control
same,T/C,[7],118 % of control
same,T/C,"dose: 62.0 mg/kg/injection, schedule: Q01DX Z (oral), vehicle: water",101 % of control
same,T/C,"dose: 80.0 mg/kg/injection, schedule: Q01DX Z (ip), vehicle: carboxymethylcellulose (CMC)",108 % of control
same,T/C,"dose: 125.0 mg/kg/injection, schedule: Q01DX Z (oral), vehicle: water",100 % of control
same,T/C,"dose: 250.0 mg/kg/injection, schedule: Q01DX Z (oral), vehicle: water",109 % of control
same,T/C,"dose: 500.0 mg/kg/injection, schedule: Q01DX Z (oral), vehicle: water",101 % of control
O=C(Nc1ccccc1F)Oc1ccc(Cl)cc1Cl,T/C,[8],114 % of control
same,T/C,[9],111 % of control
same,T/C,[15],105 % of control
same,T/C,[16],102 % of control
same,T/C,[17],102 % of control
O=C(Nc1ccc([N+](=O)[O-])cc1)N(c1cc(Cl)ccn1)C1CCCCC1,T/C,[1],96 % of control
same,T/C,[2],90 % of control
same,T/C,[3],96 % of control
NCCO[Si](OCCN)(OCCN)OCCN,T/C,"dose: 50.0 mg/kg/injection, schedule: Q01DX009 (ip), vehicle: saline",93 % of control
same,T/C,[4],88 % of control
CCCCNC(=O)Nc1ccc(C)c(Cl)c1,T/C,[9],96 % of control
same,T/C,[12],94 % of control
same,T/C,[16],94 % of control
same,T/C,[13],94 % of control
same,T/C,"dose: 400.0 mg/kg/injection, schedule: Q01DX009 (ip), vehicle: Klucel (hydroxypropylcellulose) (HPC)",89 % of control
same,T/C,[14],100 % of control
CC(C)SCC(N)CO (centres undefined),T/C,"dose: 12.5 mg/kg/injection, schedule: Q01DX009 (ip), vehicle: water",96 % of control
same,T/C,"dose: 25.0 mg/kg/injection, schedule: Q01DX009 (ip), vehicle: water",96 % of control and 117 % of control
same,T/C,"dose: 50.0 mg/kg/injection, schedule: Q01DX009 (ip), vehicle: water",99 % of control and 120 % of control
same,T/C,"dose: 100.0 mg/kg/injection, schedule: Q01DX009 (ip), vehicle: water",100 % of control and 104 % of control
same,T/C,"dose: 200.0 mg/kg/injection, schedule: Q01DX009 (ip), vehicle: water",108 % of control
Cc1ccc(C(C)C)c(OC(=O)Nc2ccc(S(=O)(=O)N(C)C)cc2)c1,T/C,[1],103 % of control
same,T/C,[2],100 % of control
same,T/C,[3],101 % of control
O=C(CSc1cc(-c2ccc(Cl)cc2)s[s+]1)c1ccc(Cl)cc1,T/C,[5],102 % of control
same,T/C,"dose: 200.0 mg/kg/injection, schedule: Q04DX003 (ip), vehicle: saline",98 % of control
same,T/C,[6],98 % of control
CCCCCCCCCCCCC[n+]1cccc(C#N)c1,T/C,"dose: 5.0 mg/kg/injection, schedule: Q04DX003 (ip), vehicle: saline",100 % of control
same,T/C,"dose: 10.0 mg/kg/injection, schedule: Q01DX001 (ip), vehicle: saline",94 % of control
same,T/C,"dose: 10.0 mg/kg/injection, schedule: Q04DX003 (ip), vehicle: saline",96 % of control
same,T/C,"dose: 20.0 mg/kg/injection, schedule: Q01DX001 (ip), vehicle: saline",103 % of control
same,T/C,"dose: 20.0 mg/kg/injection, schedule: Q04DX003 (ip), vehicle: saline",96 % of control
Cc1cc(C)c(N(CC(=O)O)S(=O)(=O)c2ccccc2)c(C)c1Cl,T/C,"dose: 50.0 mg/kg/injection, schedule: Q01DX001 (ip), vehicle: Klucel (hydroxypropylcellulose) (HPC)",100 % of control
same,T/C,"dose: 100.0 mg/kg/injection, schedule: Q01DX001 (ip), vehicle: Klucel (hydroxypropylcellulose) (HPC)",86 % of control
same,T/C,"dose: 200.0 mg/kg/injection, schedule: Q01DX001 (ip), vehicle: Klucel (hydroxypropylcellulose) (HPC)",91 % of control
Cc1ccnc(NC(=O)CCc2ccccc2)c1,T/C,[15],95 % of control
same,T/C,[17],100 % of control
same,T/C,[18],92 % of control
COc1ccc(C(O)C2c3c(cc4c(c3OC)OCO4)CCN2C)c(CO)c1OC (centres undefined),T/C,"dose: 75.0 mg/kg/injection, schedule: Q01DX001 (ip), vehicle: carboxymethylcellulose (CMC)",100 % of control
same,T/C,"dose: 150.0 mg/kg/injection, schedule: Q01DX001 (ip), vehicle: carboxymethylcellulose (CMC)",105 % of control
CC(C)OC(=O)Nc1cccc([N+](=O)[O-])c1,T/C,[15],105 % of control
same,T/C,[17],91 % of control
same,T/C,[18],97 % of control
Cn1cnc2c3cccnc3ccc21,T/C,[10],95 % of control
same,T/C,[11],103 % of control
COc1cc(C(=O)COC(C)=O)cc2c1OC(c1ccccc1)(c1ccccc1)O2,T/C,[2],86 % of control
